Assay results as given in patent US12408666B2, “Pyridyloxy carboxylate derivative, preparation method therefor, herbicidal composition and use thereof” (priority 2018, dated 2025).

Experiments:
[1] = system: Indica rice; assay: Post-emergence test, crop safety (Table 4); assay type: in vivo; conditions: 3 weeks after treatment
Protocol: (§1) Post-emergence test experiment: Monocotyledonous and dicotyledonous weed seeds and main crop seeds (i. e. wheat, corn, rice, soybean, cotton, oilseed, millet and sorghum.) were put into a plastic pot loaded with soil. Then covered with 0.5-2 cm soil, the seeds were allowed to grow in good greenhouse environment. The test plants were treated at 2-3 leaf stage 2 weeks after sowing. The test compounds of the invention were dissolved with acetone respectively, then added with tween-80, and using 1.5 liters per hectare of an emulsible concentrate of methyl oleate as a synergist, and diluted by certain amount of water to certain concentration. The solution was sprayed to the plants with a sprayer. Then the plants were cultured for 3 weeks in the greenhouse, and the experiment result of weed controlling effect after 3 weeks was listed in tables 3-4.
(§2) […] Echinochloa crusgalli and Cyperus iria were collected from Hunan province of China, and were resistant to ALS inhibitor herbicides.

[2] = system: Japonica rice; assay: Post-emergence test, crop safety (Table 4); assay type: in vivo; conditions: 3 weeks after treatment
Protocol: as §1, §2

[3] = system: Cyperus iria; assay: Post-emergence test, ALS-resistant weed (Table 4); assay type: in vivo; conditions: 504 h, 3 weeks, resistant to ALS inhibitor herbicides, read-out: Cyperus iria, activity level (growth inhibition rate)
Protocol: as §1
(§3) Note: the application dose was active ingredient 600 g/ha, plus water 450 kg/ha. Echinochloa crusgalli and Cyperus iria were collected from Hunan province of China, and were resistant to ALS inhibitor herbicides.

[4] = system: Echinochloa crusgalli; assay: Post-emergence test, ALS-resistant weed (Table 4); assay type: in vivo; conditions: Echinochloa crus-galli, 504 h, 3 weeks, resistant to ALS inhibitor herbicides, read-out: Echinochloa crusgalli, activity level (growth inhibition rate)
Protocol: as §1, §3

[5] = system: rice; conditions: known compound; cited from earlier work
[6] = system: Soybean; assay: Spray drift test by unmanned gyroplane, neighbouring soybean field; assay type: in vivo; conditions: 600 g/ha applied by unmanned gyroplane, soybean field at 10 meters, gentle breeze
Protocol: Broadleaf crops are very sensitive to hormonal herbicides, therefore crop injuries are more likely to occur in case of spray drifting. Tests were conducted in gentle breeze for the compounds of the present invention. The formulation of the compounds of the present invention was applied by DJI unmanned gyroplane with application height of 1 m and water volume of 20 kg/ha. The use rate was 600 g/ha. The active ingredient was dissolved by acetone and diluted to aqueous solution of Tween 80. There's a soybean field at 10 meters from the application area and the height of soybean plants were about 15 cm at the application time.

[7] = system: Monochoria vaginalis; assay: Weed control effect evaluation in rice field; assay type: in vivo; conditions: paddy pot, 50 g/ha, 14 days after treatment, resistant to pyrazosulfuron-ethyl and penoxsulam
Protocol: Rice field soil was loaded into a 1/1,000,000 ha pot. The seeds of Monochoria vaginalis were sowed and gently covered with soil, then left to stand still in greenhouse in the state of 0.5-1 cm of water storage. It was kept at 3-4 cm of water storage thereafter. The weeds were treated by dripping the WP or SC water diluents prepared according to the common preparation method of the compounds of the present invention with pipette homogeneously to achieve specified effective amount when Monochoria vaginalis reached 0.5 leaf stage.
The fertility condition of Monochoria vaginalis 14 days and rice 21 days after the treatment of the compound of the invention with the naked eye.
Note: The seeds of Monochoria vaginalis were collected from Heilongjing Province of China.

[8] = system: Echinochloa crusgalli, Digitaria sanguinalis, Leptochloa chinensis and Setaria viridis; conditions: commercial product; cited from earlier work

For CC(Oc1nc(F)c(Cl)c(N)c1Cl)C(=O)O (centres unmarked) [Control compound A], the “Indica rice, activity level (growth inhibition rate)” value ([1]; 300 g/ha) was 3 (Level 3: the growth inhibition rate is equal to or greater than 40% and less than 60%), the “Indica rice, activity level (growth inhibition rate)” value ([1]; 600 g/ha) was 3 (Level 3: the growth inhibition rate is equal to or greater than 40% and less than 60%) and the “Japonica rice, activity level (growth inhibition rate)” value ([2]; 300 g/ha) was 2 (Level 2: the growth inhibition rate is equal to or greater than 20% and less than 40%). For the same compound, the “Japonica rice, activity level (growth inhibition rate)” value ([2]; 600 g/ha) was 3 (Level 3: the growth inhibition rate is equal to or greater than 40% and less than 60%), the inhibition at 300 g/ha ([3]; 300 g/ha) was 60 to 85% and the inhibition at 600 g/ha [3] was greater than 85%. The inhibition at 300 g/ha ([4]; 300 g/ha) was 60 to 85%, the inhibition at 600 g/ha [4] was greater than 85% and the Safety and selectivity [5] was “poor safety and low selectivity”.

With COc1cc(OC)nc(Oc2cccc(Oc3nc(OC)cc(OC)n3)c2C(=O)O)n1 [Bispyribac-sodium] the “Indica rice, activity level (growth inhibition rate)” value ([1]; 100 g/ha) was 2 (Level 2: the growth inhibition rate is equal to or greater than 20% and less than 40%), the “Japonica rice, activity level (growth inhibition rate)” value ([2]; 100 g/ha) was 4 (Level 4: the growth inhibition rate is equal to or greater than 60% and less than 85%) and the inhibition at 100 g/ha ([3]; 100 g/ha) was 20 to 40%. It also gave an inhibition at 100 g/ha ([4]; 100 g/ha) of 5 to 20%.

With CCOC(=O)C(C)Oc1nc(F)c(Cl)c(N)c1Cl (centres unmarked) [Control compound C] the “Soybean, injury level from spray drift” value [6] was 3 (Level 3: the growth inhibition rate is equal to or greater than 40% and less than 60%).

With COc1cnc(OC)n2nc(NS(=O)(=O)c3c(OCC(F)F)cccc3C(F)(F)F)nc12 [Penoxsulam] the “Monochoria Vaginalis, activity level” value [7] was 1 (Level 1: the growth inhibition rate is equal to or greater than 5% and less than 20%).

In the case of CCCCOCC(C)OC(=O)COc1nc(F)c(Cl)c(N)c1Cl (centres unmarked) [Control compound B], the “Efficacy on key grasses in rice” value [8] is given as “very poor”, the “Indica rice, activity level (growth inhibition rate)” value ([1]; 600 g/ha) is given as 2 (Level 2: the growth inhibition rate is equal to or greater than 20% and less than 40%) and the “Japonica rice, activity level (growth inhibition rate)” value ([2]; 600 g/ha) is given as 2 (Level 2: the growth inhibition rate is equal to or greater than 20% and less than 40%). For the same compound, the inhibition at 600 g/ha [3] was 40 to 60% and the inhibition at 600 g/ha [4] was 20 to 40%.
